Numbers after ± are expanded uncertainties.
Legend:
[1] = Liquid; for viscosity / mass density: 101 kPa; for viscosity: Capillary tube (Ostwald / Ubbelohde) method; for mass density: Vibrating tube method
[2] = xn = mol fraction of the nth substance listed; conditions: 101 kPa, Liquid, x2 = 0; for viscosity: Capillary tube (Ostwald / Ubbelohde) method; for mass density: Vibrating tube method

| Structure (SMILES) | viscosity ([1]; 283.15 K) | mass density ([1]; 283.15 K) | viscosity ([1]; 293.15 K) | mass density ([1]; 293.15 K) | viscosity ([1]; 303.15 K) | mass density ([1]; 303.15 K) | vapor or sublimation pressure ([1]; 303.15 K) | viscosity ([1]; 313.15 K) | mass density ([1]; 313.15 K) | viscosity ([2]; 283.15 K) | mass density ([2]; 283.15 K) | viscosity ([2]; 293.15 K) | mass density ([2]; 293.15 K) | viscosity ([2]; 303.15 K) | mass density ([2]; 303.15 K) | viscosity ([2]; 313.15 K) | mass density ([2]; 313.15 K) |
| --- | --- | --- | --- | --- | --- | --- | --- | --- | --- | --- | --- | --- | --- | --- | --- | --- | --- |
| CC(=O)CC(C)C [4-methylpentan-2-one] | 0.655 ± 0.006 mPa·s | 809.8 ± 0.3 kg/m3 | 0.576 ± 0.005 mPa·s | 800.7 ± 0.3 kg/m3 | 0.511 ± 0.005 mPa·s | 791.6 ± 0.3 kg/m3 | 3.89 ± 0.11 kPa | 0.46 ± 0.004 mPa·s | 782.2 ± 0.3 kg/m3 |  |  |  |  |  |  |  |  |
| CC(=O)CC(C)C [4-methylpentan-2-one] + ClC(Cl)Cl |  |  |  |  |  |  |  |  |  | 0.655 ± 0.006 mPa·s | 809.8 ± 0.3 kg/m3 | 0.576 ± 0.005 mPa·s | 800.7 ± 0.3 kg/m3 | 0.511 ± 0.005 mPa·s | 791.6 ± 0.3 kg/m3 | 0.46 ± 0.004 mPa·s | 782.2 ± 0.3 kg/m3 |
| ClC(Cl)Cl [trichloromethane] | 0.629 ± 0.005 mPa·s | 1507.3 ± 0.7 kg/m3 | 0.573 ± 0.005 mPa·s | 1488.4 ± 0.7 kg/m3 | 0.516 ± 0.005 mPa·s | 1469.4 ± 0.6 kg/m3 | 32.19 ± 0.33 kPa | 0.468 ± 0.004 mPa·s | 1450 ± 0.6 kg/m3 |  |  |  |  |  |  |  |  |

Reference: the NIST ThermoML archive (doi:10.1016/j.jct.2006.07.004)
